# From ChEMBL document CHEMBL1201862, “PubChem BioAssay data set” (2004)
#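 Cells were grown in 96-well plates and exposed to each compound for 48 hours at five concentrations; endpoints were interpolated linearly between bracketing concentrations, or set to the highest concentration if not reached. GI50: concentration for 50% inhibition of growth.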 Calls of active or inactive are those of the source. Rule as the data show it: active = GI50 up to about 1.1 µM and inactive = higher.
# Columns and labels:
# Assay in all cases: NCI anticancer screen, dose series, 48 h
# HL-60 = system: HL-60
# SF-539 = system: SF-539
# HCC 2998 = system: HCC 2998
# SK-OV-3 = system: SK-OV-3
# SNB-75 = system: SNB-75
# KM12 = system: KM12
# CAKI-1 = system: CAKI-1
# Malme-3M = system: Malme-3M
# HCT-15 = system: HCT-15
# HCT-116 = system: HCT-116
# NCI-H460 = system: NCI-H460
# MDA-MB-231 = system: MDA-MB-231
# COLO 205 = system: COLO 205
# K562 = system: K562
# IGROV-1 = system: IGROV-1
# UACC-62 = system: UACC-62
# MOLT-4 = system: MOLT-4
# CCRF-CEM = system: CCRF-CEM
# HT-29 = system: HT-29
# EKVX = system: EKVX
# A549 = system: A549
# 786-0 = system: 786-0
# NCI-H522 = system: NCI-H522
# MCF7 = system: MCF7
# RPMI-8226 = system: RPMI-8226
# OVCAR-8 = system: OVCAR-8
# PC-3 = system: PC-3
# DU-145 = system: DU-145
# Hs-578T = system: Hs-578T
# ACHN = system: ACHN
# NCI/ADR-RES = system: NCI/ADR-RES
# SN12C = system: SN12C
# NCI-H226 = system: NCI-H226
# SK-MEL-2 = system: SK-MEL-2
# SW-620 = system: SW-620
# LOX IMVI = system: LOX IMVI
# UO-31 = system: UO-31
# SR = system: SR
# U-251 = system: U-251
# HOP-92 = system: HOP-92
# T47D = system: T47D
# OVCAR-3 = system: OVCAR-3
# SNB-19 = system: SNB-19
# A498 = system: A498
# SK-MEL-28 = system: SK-MEL-28
# NCI-H23 = system: NCI-H23
# RXF 393 = system: RXF 393
# BT-549 = system: BT-549
# UACC-257 = system: UACC-257
# MDA-MB-435 = system: MDA-MB-435
# OVCAR-5 = system: OVCAR-5
# TK-10 = system: TK-10
# HOP-62 = system: HOP-62
# SK-MEL-5 = system: SK-MEL-5
# OVCAR-4 = system: OVCAR-4
# SF-268 = system: SF-268
# SF-295 = system: SF-295
# M14 = system: M14
# MDA-N = system: MDA-N
smiles,measurement,setting,value
C=C1C(=O)O[C@H]2[C@@H]3O[C@@](C)(CC/C=C(\C)CCC[C@@H]2C)[C@H](O)C[C@@H]13,GI50,HL-60,2.34 µM (inactive)
same,GI50,SF-539,2.14 µM (inactive)
same,GI50,HCC 2998,5.02 µM (inactive)
same,GI50,SK-OV-3,17.6 µM (inactive)
same,GI50,SNB-75,16.4 µM (inactive)
same,GI50,KM12,10.8 µM (inactive)
same,GI50,CAKI-1,1.42 µM (inactive)
same,GI50,Malme-3M,6.32 µM (inactive)
same,GI50,HCT-15,2.56 µM
same,GI50,HCT-116,3.66 µM (inactive)
same,GI50,NCI-H460,2.99 µM (inactive)
same,GI50,MDA-MB-231,5.3 µM (inactive)
same,GI50,COLO 205,2.42 µM (inactive)
same,GI50,K562,1.25 µM (inactive)
same,GI50,IGROV-1,4.72 µM (inactive)
same,GI50,UACC-62,3.73 µM (inactive)
same,GI50,MOLT-4,3.08 µM (inactive)
same,GI50,CCRF-CEM,10.2 µM (inactive)
same,GI50,HT-29,1.38 µM (inactive)
same,GI50,EKVX,22.9 µM (inactive)
same,GI50,A549,6.79 µM (inactive)
same,GI50,786-0,2.75 µM (inactive)
same,GI50,NCI-H522,1.61 µM (inactive)
same,GI50,MCF7,2.08 µM (inactive)
same,GI50,RPMI-8226,2.25 µM (inactive)
same,GI50,OVCAR-8,3.15 µM (inactive)
same,GI50,PC-3,8.49 µM (inactive)
same,GI50,DU-145,6.5 µM (inactive)
same,GI50,Hs-578T,3.29 µM (inactive)
same,GI50,ACHN,1.98 µM (inactive)
same,GI50,NCI/ADR-RES,2.04 µM (inactive)
same,GI50,SN12C,2.28 µM (inactive)
same,GI50,NCI-H226,2.11 µM (inactive)
same,GI50,SK-MEL-2,11.8 µM (inactive)
same,GI50,SW-620,7.96 µM (inactive)
same,GI50,LOX IMVI,2.86 µM (inactive)
same,GI50,UO-31,2.87 µM (inactive)
same,GI50,SR,3.16 µM (inactive)
same,GI50,U-251,13.5 µM (inactive)
same,GI50,HOP-92,3.42 µM (inactive)
same,GI50,T47D,3.58 µM (inactive)
same,GI50,OVCAR-3,2.59 µM (inactive)
same,GI50,SNB-19,> 10 µM (inactive)
same,GI50,A498,25.1 µM (inactive)
same,GI50,SK-MEL-28,7.31 µM (inactive)
same,GI50,NCI-H23,1.61 µM (inactive)
same,GI50,RXF 393,3.94 µM (inactive)
same,GI50,BT-549,2.79 µM (inactive)
same,GI50,UACC-257,10 µM (inactive)
same,GI50,MDA-MB-435,3.06 µM (inactive)
same,GI50,OVCAR-5,13.2 µM (inactive)
same,GI50,TK-10,4.81 µM (inactive)
same,GI50,HOP-62,10.5 µM (inactive)
same,GI50,SK-MEL-5,2.08 µM (inactive)
same,GI50,OVCAR-4,7.18 µM (inactive)
same,GI50,SF-268,16.8 µM (inactive)
same,GI50,SF-295,13.9 µM (inactive)
same,GI50,M14,1.95 µM (inactive)
same,GI50,MDA-N,2.36 µM (inactive)
Nc1nccc(Nc2ccc(S(N)(=O)=O)cc2)n1,GI50,HL-60,> 100 µM (inactive)
same,GI50,SF-539,> 100 µM (inactive)
same,GI50,HCC 2998,> 100 µM (inactive)
same,GI50,SK-OV-3,> 100 µM (inactive)
same,GI50,SNB-75,> 100 µM (inactive)
same,GI50,KM12,> 100 µM (inactive)
same,GI50,CAKI-1,> 100 µM (inactive)
same,GI50,Malme-3M,> 100 µM (inactive)
same,GI50,HCT-15,> 100 µM
same,GI50,HCT-116,> 100 µM (inactive)
same,GI50,NCI-H460,> 100 µM (inactive)
same,GI50,MDA-MB-231,> 100 µM (inactive)
same,GI50,COLO 205,> 100 µM (inactive)
same,GI50,K562,> 100 µM (inactive)
same,GI50,IGROV-1,> 100 µM (inactive)
same,GI50,UACC-62,> 100 µM (inactive)
same,GI50,MOLT-4,> 100 µM (inactive)
same,GI50,CCRF-CEM,> 100 µM (inactive)
same,GI50,HT-29,> 100 µM (inactive)
same,GI50,EKVX,> 100 µM (inactive)
same,GI50,A549,> 100 µM (inactive)
same,GI50,786-0,> 100 µM (inactive)
same,GI50,NCI-H522,> 100 µM (inactive)
same,GI50,MCF7,> 100 µM (inactive)
same,GI50,RPMI-8226,> 100 µM (inactive)
same,GI50,OVCAR-8,> 100 µM (inactive)
same,GI50,PC-3,> 100 µM (inactive)
same,GI50,DU-145,> 100 µM (inactive)
same,GI50,Hs-578T,> 100 µM (inactive)
same,GI50,ACHN,> 100 µM (inactive)
same,GI50,NCI/ADR-RES,> 100 µM (inactive)
same,GI50,SN12C,> 100 µM (inactive)
same,GI50,NCI-H226,35.2 µM (inactive)
same,GI50,SK-MEL-2,> 100 µM (inactive)
same,GI50,SW-620,> 100 µM (inactive)
same,GI50,LOX IMVI,> 100 µM (inactive)
same,GI50,UO-31,> 100 µM (inactive)
same,GI50,SR,> 100 µM (inactive)
same,GI50,U-251,> 100 µM (inactive)
same,GI50,HOP-92,> 100 µM (inactive)
same,GI50,T47D,> 100 µM (inactive)
same,GI50,OVCAR-3,> 100 µM (inactive)
same,GI50,SNB-19,> 100 µM (inactive)
same,GI50,A498,> 100 µM (inactive)
same,GI50,SK-MEL-28,> 100 µM (inactive)
same,GI50,NCI-H23,> 100 µM (inactive)
same,GI50,RXF 393,> 100 µM (inactive)
same,GI50,BT-549,> 100 µM (inactive)
same,GI50,UACC-257,> 100 µM (inactive)
same,GI50,MDA-MB-435,> 100 µM (inactive)
same,GI50,OVCAR-5,> 100 µM (inactive)
same,GI50,TK-10,> 100 µM (inactive)
same,GI50,HOP-62,> 100 µM (inactive)
same,GI50,SK-MEL-5,> 100 µM (inactive)
same,GI50,OVCAR-4,> 100 µM (inactive)
same,GI50,SF-268,> 100 µM (inactive)
same,GI50,SF-295,> 100 µM (inactive)
same,GI50,M14,> 100 µM (inactive)
same,GI50,MDA-N,> 100 µM (inactive)
